Experiment [1] has as its target T1, human SSTR5 (Homo sapiens, UniProt P35346).
T1 construct: expressed in transfected cells; host or cells: CHO (dhfr-) cells, strain SSTR5-32-4, plasmid pA1-11-SSTR5 (pAKKO-111 vector)
The experiment can be described thus: Binding inhibition of 125I-somatostatin-14, SSTR5 membrane fraction. The conditions noted are these: 125I-somatostatin-14 binding, CHO membrane fraction, 25° C. 60 minutes, Hill plots.

In experiment [2] the target is T2, human SSTR3 (Homo sapiens, UniProt P32745).
T2 construct: expressed in transfected cells; host or cells: CHO (dhfr-) cells, strain SSTR3-15-19, plasmid pA1-11-SSTR3 (pAKKO-111 vector)
T2 sequence (P32745 whole entry): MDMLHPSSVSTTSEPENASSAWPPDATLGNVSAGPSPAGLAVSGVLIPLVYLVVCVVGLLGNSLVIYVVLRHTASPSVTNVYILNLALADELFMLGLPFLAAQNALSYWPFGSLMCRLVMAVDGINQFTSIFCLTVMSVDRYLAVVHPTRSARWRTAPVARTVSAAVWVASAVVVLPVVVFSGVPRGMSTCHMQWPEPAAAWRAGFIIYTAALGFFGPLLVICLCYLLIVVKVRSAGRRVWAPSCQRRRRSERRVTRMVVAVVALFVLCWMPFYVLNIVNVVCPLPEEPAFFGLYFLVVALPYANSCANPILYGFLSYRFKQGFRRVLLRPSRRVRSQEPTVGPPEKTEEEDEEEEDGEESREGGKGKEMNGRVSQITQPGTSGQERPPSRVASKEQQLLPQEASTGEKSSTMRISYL
The experiment can be described thus: Binding inhibition of 125I-somatostatin-14, SSTR3 membrane fraction. The note with it: 125I-somatostatin-14 binding, CHO membrane fraction, 25° C. 60 minutes, Hill plots.

Experiment [3] concerns the target T3, human SSTR2 (Homo sapiens, UniProt P30874).
T3 construct: expressed in transfected cells; host or cells: CHO (dhfr-) cells, strain SSTR2-HS5-9, plasmid pAC01 (pAKKO-111 vector)
Description: Binding inhibition of 125I-somatostatin-14, SSTR2 membrane fraction. The conditions noted are these: 125I-somatostatin-14 binding, CHO membrane fraction, 25° C. 60 minutes, Hill plots. Here is the method:
(4) Cloning of Human Somatostatin Receptor Protein Subtype 2 (SSTR2) DNA
pAKKO-111 mentioned under the above (2) was used as the expression vector in CHO (Chinese Hamster Ovary) cells. 5 μg of the plasmid having human SSTR2 cDNA fragment obtained under the above (4) was digested with the restriction enzyme Sal I and subjected to electrophoresis on 1% agarose gel to recover the 1.1 kb DNA fragment encoding human SSTR2. Next, 1 μg of the above-mentioned expression vector pAKKO-111 (5.5 kb) was digested with Sal I to prepare the cloning site for insertion of human SSTR2 DNA fragment. Said expression vector fragment and the 1.1 kb DNA fragment were ligated with T4 DNA ligase. The reaction mixture was introduced into E. coli JM109 by the calcium chloride method to obtain the expression plasmid pAC01 in which human SSTR2 DNA fragment was inserted in regular direction against the promoter from the transformants. This transformant is expressed as Escherichia coli JM109/pAC-01.
1×10^6 CHO (dhfr^−) cells were cultured for 24 hours in HAM F12 medium containing 10% bovine fetal serum on a laboratory dish of 8 cm in diameter. To the cells was transfected 10 μg of the human SSTR2 cDNA expression plasmid, pA-C01, obtained under the above (5) by the calcium phosphate method (Cell Phect Transfection Kit: Pharmacia). The medium was switched to DMEM medium containing 10% dialyzed bovine fetal serum 24 hours after the transfection to select the colony-forming cells (i.e. DHFR^+ cells) in this medium. Further, the selected cells were cloned from a single cell by the limiting dilution method and a cell strain which highly expresses human SSTR2, SSTR2-HS5-9, was selected.
The receptor binding inhibition rate (%) of the subject compound was calculated using each of the membrane fractions prepared in Experimental Examples 1 and 2.
The membrane fraction was diluted with a buffer solution for assay to adjust the concentration to 3 μg/ml. The diluate was placed in tubes each in quantity of 173 μl. To this were simultaneously added 2 μl of a solution of a subject compound in DMSO and 25 μl of a […] radioisotope-labeled somatostatin-14 (^125I-somatostatin-14: Amersham). For measurement of the maximum binding, a reaction mixture added with 2 μl of DMSO and 25 μl of a […] ^125I-somatostatin was prepared. For measurement of non-specific binding, a reaction mixture added with 2 μl of a 100 μM somatostatin solution in DMSO and 25 μl of a 200 pM ^125I-somatostatin solution was prepared at the same time. The mixtures were allowed to react at 25° C. for 60 minutes. Then, the reaction mixture was filtered by aspiration using a Whatman glass filter (GF-B) treated with polyethylenine. After filtration, the radioactivity of ^125I-somatostatin-14 remaining on the filter paper was measured by a γ-counter. The binding inhibition rate (%) of each subject compound was calculated by the following formula: (TB-SB)/(TB-NSB)×100 • SB: radioactivity when a compound was added • TB: maximum binding radioactivity • NSB: non-specific binding radioactivity
The binding inhibition rates were measured by changing the concentrations of the subject compound, and the 50% inhibiting concentration of the subject compound (IC50 value) was calculated by the Hill plots. The results are shown in [Table 1].

Experiment [4] concerns glucagon secretion. The experiment can be described thus: Glucagon Secretion Inhibitory Activity Test (Rat). The conditions noted are these: SD rats male fasted, 3 mg/kg oral, insulin 2 U/kg s.c. 120 minutes later, plasma glucagon 30 minutes after insulin. Format: in vivo. Here is the method:
Glucagon Secretion Inhibitory Activity Test (Rat)
A 0.5% methylcellulose suspension containing the subject compound (3 mg/kg body weight) (compound administration group) or a 0.5% methylcellulose suspension (compound non-administration group) was orally administered to SD rats (male, 7 weeks of age) after fasting overnight, and 120 minutes later, insulin (2 U/kg body weight, Novo Nordisk) was subcutaneously administered. After 30 minutes from the insulin administration, the blood was,drawn from the vein of eyegrounds of the rats using capillary, and blood plasma was separated by centrifugation. The concentration of glucagon in the obtained blood plasma was measured by radioimmunoassay using a Daiichi glucagon kit (Daiichi Isotope). As a non-treated group, the concentration of glucagon in the blood plasma of rat of the compound non-administration group free of insulin administration was measured in the same manner as above. […]

T3 sequence (P30874 whole entry): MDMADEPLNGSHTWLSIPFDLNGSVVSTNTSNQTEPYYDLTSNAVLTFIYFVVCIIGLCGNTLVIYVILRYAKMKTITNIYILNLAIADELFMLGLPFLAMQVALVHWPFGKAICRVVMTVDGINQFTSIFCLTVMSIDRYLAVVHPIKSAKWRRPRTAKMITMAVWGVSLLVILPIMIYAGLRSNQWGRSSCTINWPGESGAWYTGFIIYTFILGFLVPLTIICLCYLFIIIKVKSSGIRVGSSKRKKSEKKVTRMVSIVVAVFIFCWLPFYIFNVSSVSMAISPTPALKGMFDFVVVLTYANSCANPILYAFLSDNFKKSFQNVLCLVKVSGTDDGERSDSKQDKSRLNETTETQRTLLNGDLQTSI
T1 sequence (P35346 whole entry): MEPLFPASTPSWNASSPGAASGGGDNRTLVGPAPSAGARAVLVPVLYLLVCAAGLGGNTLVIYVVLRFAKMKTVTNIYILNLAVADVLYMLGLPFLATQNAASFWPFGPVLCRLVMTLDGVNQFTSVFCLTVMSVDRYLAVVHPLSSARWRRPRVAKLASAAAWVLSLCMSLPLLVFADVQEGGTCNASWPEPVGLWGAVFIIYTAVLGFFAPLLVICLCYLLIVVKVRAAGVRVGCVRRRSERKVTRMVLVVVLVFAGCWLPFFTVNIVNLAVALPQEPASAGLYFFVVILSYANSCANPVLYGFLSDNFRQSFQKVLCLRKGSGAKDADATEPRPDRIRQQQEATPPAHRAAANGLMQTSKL

One may read the IC50 as the point on the concentration scale where inhibition reaches its midpoint. With `CC(c1c[nH]c2ccccc12)C(NC(=O)N1CCC(Oc2ccc(O)cc2)CC1)C(=O)N1C[C@@H](CN(C)C)Cc2cc(Cl)ccc21` (single isomer, unassigned; (-)) [Example 141], the results for the concentration for half-maximal inhibition (IC50) in experiment [1], in experiment [2] and in experiment [3] were 10 nM, 3 nM and 0.05 nM, respectively.

For `C[C@@H](c1c[nH]c2ccccc12)[C@@H](NC(=O)C1CCN(C(=O)c2cc3ccccc3n2C)CC1)C(=O)N1C[C@@H](CN(C)C)Cc2cc(Cl)ccc21` [Example 6, N-[(1R,2S)-1-[((3R)-6-chloro-3-[(dimethylamino)methyl]-3,4-dihydro-1(2H)-quinolinyl)carbonyl]-2-(1H-indol-3-yl)propyl]-1-[(1-methyl-1H-indol-2-yl)carbonyl]-4-piperidinecarboxamide], the “glucagon secretion (% of control)” value in experiment [4] is 15.6 % of control. Further, the IC50 in experiment [1] came to 60 nM; in experiment [2], 30 nM; in experiment [3], 0.2 nM.

In the case of `C[C@@H](c1c[nH]c2ccccc12)[C@@H](NC(=O)N1CCC(Oc2ccccc2)CC1)C(=O)N1C[C@@H](CN(C)C)Cc2cc(Cl)ccc21` [Example 42, N-[(1R,2S)-1-[((3R)-6-chloro-3-[(dimethylamino)methyl]-3,4-dihydro-1(2H)-quinolinyl)carbonyl]-2-(1H-indol-3-yl)propyl]-4-phenoxy-1-piperidinecarboxamide], the “glucagon secretion (% of control)” value in experiment [4] is on record as 3.0 % of control. In addition, the half-maximal inhibitory concentration (IC50) was found to be 40 nM in experiment [1], 6 nM in experiment [2] and 0.1 nM in experiment [3].

For `C[C@@H](c1c[nH]c2ccccc12)[C@@H](NC(=O)N1CCC(Oc2ccc(F)cc2)CC1)C(=O)N1C[C@@H](CN(C)C)Cc2cc(Cl)ccc21` [Example 153, N-[(1R,2S)-1-[[(3R)-6-chloro-3-[(dimethylamino)methyl]-3,4-dihydro-1(2H)-quinolinyl]carbonyl]-2-(1H-indol-3-yl)propyl]-4-(4-fluorophenoxy)-1-piperidinecarboxamide], the IC50 is 40 nM in experiment [1], 10 nM in experiment [2] and 0.1 nM in experiment [3].

Consider `C[C@@H](c1c[nH]c2ccccc12)[C@@H](NC(=O)N1CCN(C(=O)c2ccccc2)CC1)C(=O)N1C[C@@H](CN(C)C)Cc2cc(Cl)ccc21` [Example 157, 4-benzoyl-N-[(1R,2S)-1-[[(3R)-6-chloro-3-[(dimethylamino)methyl]-3,4-dihydro-1(2H)-quinolinyl]carbonyl]-2-(1H-indol-3-yl)propyl]-1-piperazinecarboxamide], for which the half-maximal inhibitory concentration (IC50) was 5 nM in experiment [1], 1 nM in experiment [2] and 0.05 nM in experiment [3].
